Laboratory results reported in US20140148476A1, “METHODS FOR TREATING OBESITY AND DISORDERS ASSOCIATED WITH HYPERLIPIDEMIA IN A MAMMAL” (AEGERION PHARMACEUTICALS, INC., priority 2009, published 2014).
“Also recorded” adds a separate entry of the source. Like-named read-outs stand apart in the source and are kept apart here.

How the values were obtained:
DGAT −/−mice = assay: Hepatic triglyceride levels in DGAT +/− and DGAT −/− mice dosed with AEGR-733; format: in vivo; details: DGAT −/− mice treated with AEGR-733 compared to DGAT +/− mice treated with AEGR-733; oral gavage for four successive days, chow diet, euthanized approximately 6 hours after the last dose
Description: DGAT +/−mice or DGAT −/−mice (Jackson Laboratory, Me., U.S.A.) were fed a chow diet ad libitum. Mice were dosed by oral gavage for four successive days with AEGR-733 or with vehicle control at about 9:00 AM. AEGR-733 was dissolved in M-pyrol and diluted to appropriate concentration in vehicle. Final vehicle composition was 10% M-pyrol, 80% water, 5% cremophore, and 5% ethanol. Dosing volume was 200 μl. The mice were euthanized approximately 6 hours after the last dose. Blood was obtained at time of sacrifice by orbital eye bleed and plasma was made for determination of total cholesterol (TC), high density lipoprotein cholesterol (HDL-C), triglyceride (TG) and non-HDL-C.

[1] = 25 mg/day, some patients, monotherapy, cited from earlier work
[2] = cited from earlier work
[3] = clinical studies, dosages of 80 mg/day or greater

Row | SMILES | hepatic triglyceride levels (DGAT −/−mice) | adverse events [1] | adverse events ([1]; listed as BMS-201038) | adverse events ([2]; 80 mg/day) | adverse events ([2]; 160 mg/day) | adverse events [2, 3] | therapeutic effectiveness [2, 3]
1 | O=C(NC1CCN(CCCCC2(C(=O)NCC(F)(F)F)c3ccccc3-c3ccccc32)CC1)c1ccccc1-c1ccc(C(F)(F)F)cc1 [AEGR-733, N-(2,2,2-Trifluorethyl)-9-[4-[4-[[[4′-(trifluoromethyl)[1,1′biphenyl]-2-Yl]carbonyl]amino]-1-piperidinyl]butyl]9H-fluorene-9-carboxamide] | significantly reduced; also recorded: significantly lower | gastrointestinal disorders, abnormalities in liver function and/or hepatic steatosis | gastrointestinal disturbances, abnormalities in liver function, and hepatic steatosis | – | – | – | –
2 | Cc1cc(C)c2c3ccccc3n(Cc3ccc([C@@H](C(=O)N[C@H](CO)c4ccccc4)C4CCCC4)cc3)c2n1 [implitapide, (2S)-2-cyclopentyl-2-[4-[(2,4-dimethyl-9H-pyrido[2,3-b]indol-9-yl)methyl]phenyl]-N-[(1S)-2-hydroxy-1-phenylethyl]ethanamide] | – | – | – | gastrointestinal disorders, abnormalities in liver function and/or hepatic steatosis | gastrointestinal disorders, abnormalities in liver function and/or hepatic steatosis | gastrointestinal disturbances, abnormalities in liver function, and hepatic steatosis | therapeutically effective
